We go through 1 compound from patent publication EP1437348A1, “6-methyl-2,4-diamino-pyrimidine derivatives, process for preparation, compositions containing them and their uses as basic neutralising agents” (L'OREAL, priority 2003, dated 2004).

Molecules are shown by their SMILES. Converted amounts (≈) assume the structure as drawn.

For series [1], the system named is Pseudomonas aeruginosa. As to the kind of experiment: Challenge test (artificial contamination) in cosmetic supports. As to conditions: inoculum about 10^6 germes/gramme, sensitivity threshold 200 UFC. In kind it is cell-based. An excerpt: (§1) La mesure de la Concentration Minimale Inhibitrice (C.M.I.) développée ci-dessus ne peut être utilisée avec fiabilité pour les moisissures; or les moisissures peuvent également poser de graves problèmes dans la conservation des produits cosmétiques. En sachant que l'activité d'un composé diminue lorsqu'il est introduit dans une formule et que la méthode de la CMI se fait après dilution du composé dans l'eau, l'efficacité anti-microbienne des composés de formule (I) a été évaluée par la méthode du Challenge Test ou contamination artificielle après avoir introduit lesdits composés dans des supports cosmétiques (lotion, émulsions huile-dans-eau et eau-dans-huile). La méthode du challenge-test consiste en une contamination artificielle de l'échantillon par des souches microbiennes de collection (bactéries, levures et moisissures) et en une évaluation du nombre de micro-organismes revivifiables sept jours après l'inoculation. Afin de mettre en évidence l'effet d'un composé de formule (I), l'activité anti-microbienne d'une formule cosmétique contenant 0.25% de 4 methyl-pipéridine-1-yl-pyrimidine-2-ylamine a été comparée avec la même formule seule, après inoculation d'environ 10^6 germes/gramme de produit cosmétique.

The next series deals with Enterococcus faecalis. Described as above. It is filed as cell-based. As to conditions: inoculum about 10^6 germes/gramme, sensitivity threshold 200 UFC.
Description: as §1

Series [2] concerns Candida albicans. The description is as above. In kind it is cell-based. As to conditions: inoculum about 10^6 germes/gramme, sensitivity threshold 200 UFC.
Description: as §1

The next series relates to Aspergillus niger. The series is described as above. Conditions: inoculum about 10^6 germes/gramme, sensitivity threshold 200 UFC. It is filed as cell-based.
Description: as §1

For series [3], the system named is Escherichia coli. Described as above. In kind it is cell-based. Conditions: inoculum about 10^6 germes/gramme, sensitivity threshold 200 UFC.
Description: as §1

Series [4] is described as follows: Ionisation constants by potentiometric titration. In kind it is physicochemical. Conditions: function NH^+/N (pyrimidine motif); pKa in water, NaCl 0.15M, obtained from the solvent pKa by a polynomial function; read-out: pKa expérimental. The method, then: Les constantes d'ionisation sont déterminées expérimentalement par titrage potentiométrique suivant les conditions opératoires décrites ci-dessous et évaluées par le logiciel de prédiction ACD/pK DB, Version 5.12.
Conditions opératoires du titrage potentiométrique • Matériel utilisé : (Radiometer-Tacussel) : • titrateur TIM 900 • passeur d'échantillons SAC 90 • logiciel Tim Talk 9 • - Prise d'essai : 10^-4 mole • - Mise en solution : (solubilisation avec passeur d'échantillons) • 5 ml du mélange DMSO 70 / Ethanol 10 / Eau 20 (agitation 3 minutes avec barbotage d'azote) • 10 ml d'une solution de NaCl 0.225M dans eau 80 / DMSO 20 (agitation 3 minutes avec barbotage d'azote) • - Méthode de titrage : • Etalonnage de l'électrode entre pH4 et pH10 • Titrage direct par NaOH 1N ou après ajout d'HCl 1N • Détection d'inflexion avec ajout continu du titrant • vitesse d'addition mini : 1%/min • vitesse d'addition maxi : 1%/min • Flux d'azote à la surface de la solution pendant le titrage • - Calculs : • 2 fonctions polynomiales sont utilisées pour obtenir le pKa dans l'eau en milieu NaCl 0.15M : • pour les fonctions acides : pKaH2O = -0,0208(pKasolvant)^2 + 1,257pKasolvant - 1,6 • pour les fonctions basiques :pKaH2O = -0,0208(pKasolvant)^2 + 1,257pKasolvant - 0,75

Series [5] deals with Pseudomonas aeruginosa. As to the kind of experiment: Minimal inhibitory concentration (CMI), Alamar Blue broth method. Conditions: ATCC9027, ATCC #9027, lowest concentration with growth inhibition ≥ 90%, 16 h contact at 37°C, read-out: CMI P.aeruginosa. In kind it is cell-based. An excerpt: (§2) La méthode de détermination de l'activité anti-microbienne des composés selon l'invention fait intervenir la mesure de la Concentration Minimale Inhibitrice (CMI) vis-à-vis de 2 bactéries gram- (E. coli et P. aeruginosa), d'une bactérie gram+ (S. aureus) et d'une levure (C. albicans). Cette méthode a été effectuée selon la méthode décrite dans les articles suivants: - Baker C.N., Banerjee S.N. and Tenover F.C. : Evaluation of Alamar colorimetric MIC Method for antimicrobial susceptibility testing of gram-negative bacteria. J. Clin. Microbiol. (1994), 32, 1261-1267; - Baker C.N. and Tenover F.C. : Evaluation of Alamar colorimetric broth microdilution susceptibility testing method for staphylococci and enterococci. J. Clin. Microbiol. (1996), 34, 2654-2659. Les souches bactériennes utilisées au départ sous forme de disques lyophilisés calibrés sont réhydratées en suivant les indications du fournisseur (Fisher Scientific S.A.)
(§3) Les souches sont ensemencées dans du milieu Trypto-caseine-soja. La mise en contact du composé à tester solubilisé dans l'eau, avec les souches en phase de croissance s'effectue en milieu liquide. Après 16 heures de contact du composé avec les bactéries (37°C), de l'Alamar Blue est ajouté comme indicateur métabolique de la viabilité de cellules variées et de bactéries. La réduction de l'indication est proportionnelle à l'activité métabolique des bactéries. A l'issue de l'incubation d'une durée de 2h (sauf pour C. albicans pour laquelle l'incubation est de 4h), l'activité métabolique des bactéries est évaluée par une lecture en absorbance ou en fluorescence. En fluorescence, les lectures sont réalisées à 544nm (Excitation) et à 590nm (Emission). Les composés les plus actifs sont sélectionnés et un effet dose (8 concentrations) est ensuite réalisé comme précédemment. La Concentration Minimale Inhibitrice (C.M.I.) a alors été déterminée comme étant la concentration la plus faible du composé testé pour laquelle était observée une inhibition de croissance de la bactérie ou de la levure ≥ 90%.

For the next series, the system named is Staphylococcus aureus. The description is as above. In kind it is cell-based. As to conditions: ATCC6538, ATCC #6538, lowest concentration with growth inhibition ≥ 90%, 16 h contact at 37°C, read-out: CMI S.aureus.
Description: as §2, §3

Series [6] deals with Candida albicans. Described as above. In kind it is cell-based. Conditions: ATCC10231, ATCC #10231, lowest concentration with growth inhibition ≥ 90%, 16 h contact at 37°C.
Description: as §2, §3

For series [7], the system named is Escherichia coli. Described as above. In kind it is cell-based. As to conditions: ATCC8739, ATCC #8739, lowest concentration with growth inhibition ≥ 90%, 16 h contact at 37°C, read-out: CMI E.coli.
Description: as §2, §3

Where [8] appears, read: Emulsion démaquillante huile dans eau + 0.25% compound.
Where [9] appears, read: Emulsion eau dans huile + 0.250% compound.

For the compound `Cc1cc(N2CCCCC2)nc(N)n1` [Composé M, 4-methyl-6-pipéridine-1-yl-pyrimidine-2-ylamine], the “Nombre d'UFC / gramme de produit après 7 jours de contact germes / produit” value with Pseudomonas aeruginosa [1] (setting [8]) is on record as less than 200 UFC / gramme de produit; in the series on Pseudomonas aeruginosa [1] (setting [9]), less than 200 UFC / gramme de produit; in the series on Pseudomonas aeruginosa [1] (Lotion + 0.25% compound), less than 200 UFC / gramme de produit; in the series on Enterococcus faecalis (setting [8]), less than 200 UFC / gramme de produit; in the series with Enterococcus faecalis (Lotion + 0.25% compound) it was 400 UFC / gramme de produit; in the series with Candida albicans [2] (setting [8]), less than 200 UFC / gramme de produit. Further, the “Nombre d'UFC / gramme de produit après 7 jours de contact germes / produit” value with Candida albicans [2] (setting [9]) is less than 200 UFC / gramme de produit; with Candida albicans [2] (Lotion + 0.25% compound) it was less than 200 UFC / gramme de produit; in the series with Aspergillus niger (setting [9]), 400 UFC / gramme de produit; in the series on Aspergillus niger (Lotion + 0.25% compound), 400 UFC / gramme de produit; with Escherichia coli [3] (setting [8]), <200^2 UFC / gramme de produit; with Escherichia coli [3] (setting [9]), <200^2 UFC / gramme de produit. The “Nombre d'UFC / gramme de produit après 7 jours de contact germes / produit” value in the series on Escherichia coli [3] (Lotion + 0.25% compound) was <200^2 UFC / gramme de produit. Moreover, the pKa in series [4] was found to be 8.35. Also, the MIC with Pseudomonas aeruginosa [5] was determined as 5000 µg/mL (≈ 26 mM); in the series on Staphylococcus aureus, 5000 µg/mL (≈ 26 mM); with Candida albicans [6] it was 625 µg/mL (≈ 3.25 mM); in the series with Escherichia coli [7], 5000 µg/mL (≈ 26 mM).

Broadly, the pKa is the negative logarithm of the acid dissociation constant.
